In one series the target is T1, rat P450 2B1 (Rattus norvegicus, UniProt P00176).
T1 sequence (P00176 1-491): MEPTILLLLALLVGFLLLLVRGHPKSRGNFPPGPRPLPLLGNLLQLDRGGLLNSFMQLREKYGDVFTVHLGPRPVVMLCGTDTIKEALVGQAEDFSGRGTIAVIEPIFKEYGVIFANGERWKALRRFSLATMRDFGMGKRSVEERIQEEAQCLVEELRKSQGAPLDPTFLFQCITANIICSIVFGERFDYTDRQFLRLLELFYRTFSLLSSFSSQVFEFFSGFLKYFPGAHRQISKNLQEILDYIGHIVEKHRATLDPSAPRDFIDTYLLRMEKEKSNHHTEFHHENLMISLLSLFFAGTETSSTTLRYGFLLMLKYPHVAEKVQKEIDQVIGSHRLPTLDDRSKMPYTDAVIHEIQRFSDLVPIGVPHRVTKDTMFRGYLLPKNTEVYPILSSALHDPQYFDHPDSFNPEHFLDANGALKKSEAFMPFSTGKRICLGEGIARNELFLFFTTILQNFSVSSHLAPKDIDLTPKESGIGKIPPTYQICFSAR
Description: biochemical. The class given is biochemical. To be noted: for inhibition potency for P450 2B1 (in words): rat P450 2B1, PROD activity.

Another series deals with T2, human P450 1A1 (Homo sapiens, UniProt P04798).
T2 sequence (P04798 1-512): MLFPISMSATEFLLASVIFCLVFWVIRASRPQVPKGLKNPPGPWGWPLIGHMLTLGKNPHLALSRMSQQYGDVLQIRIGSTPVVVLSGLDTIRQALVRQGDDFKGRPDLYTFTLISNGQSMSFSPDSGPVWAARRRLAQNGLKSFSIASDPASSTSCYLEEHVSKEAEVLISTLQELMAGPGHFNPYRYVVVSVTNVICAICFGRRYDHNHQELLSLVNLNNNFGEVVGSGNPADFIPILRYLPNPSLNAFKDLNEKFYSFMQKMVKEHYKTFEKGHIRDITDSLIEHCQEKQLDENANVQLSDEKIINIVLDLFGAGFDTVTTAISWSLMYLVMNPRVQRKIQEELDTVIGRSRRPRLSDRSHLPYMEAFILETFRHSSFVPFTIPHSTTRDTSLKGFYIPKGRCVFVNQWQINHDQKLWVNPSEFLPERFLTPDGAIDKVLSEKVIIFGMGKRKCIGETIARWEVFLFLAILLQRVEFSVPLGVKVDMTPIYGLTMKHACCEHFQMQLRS
Description: biochemical.

Another series has as its target T3, human P450 1A2 (Homo sapiens, UniProt P05177).
T3 sequence (P05177 1-516): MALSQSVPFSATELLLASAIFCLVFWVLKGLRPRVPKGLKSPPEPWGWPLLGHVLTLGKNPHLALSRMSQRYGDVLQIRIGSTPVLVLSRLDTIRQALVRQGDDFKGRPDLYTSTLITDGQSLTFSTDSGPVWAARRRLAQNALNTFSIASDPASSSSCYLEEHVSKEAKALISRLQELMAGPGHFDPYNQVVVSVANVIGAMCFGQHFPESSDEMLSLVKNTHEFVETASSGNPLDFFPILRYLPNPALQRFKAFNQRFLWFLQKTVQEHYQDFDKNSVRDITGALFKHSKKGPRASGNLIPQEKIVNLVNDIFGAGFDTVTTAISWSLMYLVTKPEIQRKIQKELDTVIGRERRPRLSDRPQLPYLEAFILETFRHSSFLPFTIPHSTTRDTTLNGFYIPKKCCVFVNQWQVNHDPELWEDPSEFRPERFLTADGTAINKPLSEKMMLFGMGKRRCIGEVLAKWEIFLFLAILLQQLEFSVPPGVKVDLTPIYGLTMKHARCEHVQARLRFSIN
Briefly: 7-methoxyresorufin O-demethylation. The class given is biochemical.

What is called IC50 is the concentration at which inhibition is half-maximal.

As to `CCOc1ccc2c(c1)[nH]c1ccccc12` [VI, 2-ethoxy-9H-carbazole], the IC50 against rat P450 2B1 amounted to 8.43 µM; at human P450 1A1, 15.6 µM.

With `COc1ccc2c(c1)[nH]c1ccccc12` [V, 2-methoxy-9H-carbazole], the IC50 at rat P450 2B1 was 13.3 µM; at human P450 1A1 it was 35 µM.

For `C#CCOc1ccc2c(c1)[nH]c1ccccc12` [VIII, 2-(prop-2-yn-1-yloxy)-9H-carbazole], the IC50 on rat P450 2B1 came to 5.26 µM; at human P450 1A1 it was 8.65 µM.

For the compound `Oc1cccc2[nH]c3ccccc3c12` [4-hydroxycarbazole, 4-Hydroxycarbazole, reference compound], the IC50 against rat P450 2B1 is more than 100 µM; at human P450 1A2, 7.33 µM; against human P450 1A1, 36.8 µM.

Consider `CCOc1cccc2[nH]c3ccccc3c12` [II, 4-ethoxy-9H-carbazole], for which, on rat P450 2B1, the IC50 stood at 1.14 µM and the “inhibition potency for P450 2B1 (in words)” value (“inhibition potency” below) is reported as “good inhibition potency”. Also, half-maximal inhibition against human P450 1A1 (IC50) required 10.3 µM.

`CCCOc1ccc2c(c1)[nH]c1ccccc12` [VII, 2-propoxy-9H-carbazole]: the figures for the half-maximal inhibitory concentration (IC50) on rat P450 2B1 and on human P450 1A1 were 10.6 µM and 26.4 µM, respectively.

As to `COc1cccc2[nH]c3ccccc3c12` [I, 4-methoxy-9H-carbazole], at rat P450 2B1, the IC50 was 1.83 µM and the “inhibition potency” value is reported as “good inhibition potency”. This compound also registered an IC50 at human P450 1A1 of 21.5 µM.

With `Oc1ccc2c(c1)[nH]c1ccccc12` [2-hydroxycarbazole, 2-Hydroxycarbazole, reference compound], the concentration for half-maximal inhibition (IC50) is 41.6 µM on rat P450 2B1, 59.7 µM against human P450 1A2 and 70.5 µM against human P450 1A1.

On to `C#CCOc1cccc2[nH]c3ccccc3c12` [IV, 4-(prop-2-yn-1-yloxy)-9H-carbazole], for which, at rat P450 2B1, inhibition was half-maximal at 1.78 µM (IC50) and the “inhibition potency” value is “good inhibition potency”. On human P450 1A1, this compound displayed an IC50 of 6.64 µM.

For `CCCOc1cccc2[nH]c3ccccc3c12` [III, 4-propoxy-9H-carbazole], the IC50 was 0.659 µM against rat P450 2B1 and 8.73 µM on human P450 1A1. In addition, the “inhibition potency” value against rat P450 2B1 is “good inhibition potency”.
